Laboratory results from ChEMBL document CHEMBL1201862, “PubChem BioAssay data set” (2004).
Active and inactive are the calls of the source.

Assays:
[1] = P. falciparum Dd2 growth inhibitors, dose response, SYBR Green, dry powder samples, set 9 (AID 1159568); format: functional, cell-based
[2] = inhibitors of Vif binding to APOBEC3G peptide, primary screen, biochemical, TR-FRET, GST-Vif 1-94, biotin-A3G peptide, dose response retest (AID 1117319); format: functional;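 note: TR-FRET signal of purified GST-Vif binding a biotinylated A3G peptide; inhibitors lower the FRET signal by blocking Vif and A3G binding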
[3] = A cytotoxicity screen of small molecule inhibitors of the PhoP region in Salmonella typhi identified in the primary screen. [Related pubchem assays: 1850, 1864, 1985 ]; format: functional
[4] = IGROV1 ovarian cancer cell cytotoxicity, dose response, PAX8 inhibitor project, plate reader, dry powder samples (AID 743043); format: functional, cell-based; details: IGROV-1
[5] = NIH:OVCAR-3 ovarian cancer cell cytotoxicity, dose response, PAX8 inhibitor project, plate reader, dry powder samples (AID 743044); format: functional, cell-based
[6] = cytotoxicity in OVCAR8 ovarian cancer cells, dose response, PAX8 project, cell-based, plate reader, dry powder samples (AID 743197); format: functional; details: OVCAR-8
Paired box protein Pax-8 = Paired box protein Pax-8 (Homo sapiens, UniProt Q06710); test: inhibitors of PAX8-driven TPO luciferase reporter, dose response, RMG-I cells, cherry-pick (AID 687027); format: functional, cell-based;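 note: luciferase reporter driven by Pax8 target thyroperoxidase promoter measured by SteadyGlo luminescence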
Sequence of Paired box protein Pax-8 (Q06710 whole entry): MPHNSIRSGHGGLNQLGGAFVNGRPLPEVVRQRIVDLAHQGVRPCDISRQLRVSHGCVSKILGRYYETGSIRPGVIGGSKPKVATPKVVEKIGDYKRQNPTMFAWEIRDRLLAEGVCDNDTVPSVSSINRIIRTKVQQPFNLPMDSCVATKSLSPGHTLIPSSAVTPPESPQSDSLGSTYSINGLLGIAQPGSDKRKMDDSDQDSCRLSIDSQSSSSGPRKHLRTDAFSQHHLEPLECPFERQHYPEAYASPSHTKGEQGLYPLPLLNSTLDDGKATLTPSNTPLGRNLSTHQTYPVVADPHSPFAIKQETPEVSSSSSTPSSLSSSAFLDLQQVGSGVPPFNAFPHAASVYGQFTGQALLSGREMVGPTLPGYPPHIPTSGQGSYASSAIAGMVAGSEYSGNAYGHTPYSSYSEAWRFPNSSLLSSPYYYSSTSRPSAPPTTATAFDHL

[7] = cytotoxicity toward HCT116 cells – cell-based, CellTiter-Glo luminescence, IC50, dose response (AID 1117332); format: functional; details: HCT-116
[8] = cytotoxicity toward Colo320 cells – cell-based, CellTiter-Glo luminescence, IC50, dose response (AID 1117334); format: functional; details: COLO 320
[9] = HCT116 cell viability decrease, GSK3B pretreatment – CellTiter-Glo, IC50, dose response (AID 1117339); format: functional; details: HCT-116
[10] = CellTiter-Glo luminescent dose response of DLD-1 viability loss (AID 1117352); format: functional
[11] = RKO cell viability reduction, dose response, CellTiter-Glo luminescence (AID 1117322); format: functional
[12] = Concentration-dependent survival of SW480 colon cancer line, luminescence detection with CellTiter-Glo, half-maximal inhibitory concentration (AID 1117338); format: functional
[13] = cytotoxicity toward HT-29 cells – cell-based, CellTiter-Glo luminescence, IC50, dose response (AID 1117330); format: functional
[14] = SNU-C1 cell viability reduction, dose response, CellTiter-Glo luminescence (AID 1117323); format: functional, cell-based
[15] = Dose-response inhibition of insulin secretion in a rat insulinoma line at 5 mM glucose (AID 1117331); format: functional, cell-based; details: INS-1E
Cytochrome P450 1A2 = biological target: T1, Cytochrome P450 1A2 (Homo sapiens, UniProt P05177);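 note: PubChem cytochrome P450 panel assay, CYP1A2 panel member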
T1 sequence (P05177 whole entry): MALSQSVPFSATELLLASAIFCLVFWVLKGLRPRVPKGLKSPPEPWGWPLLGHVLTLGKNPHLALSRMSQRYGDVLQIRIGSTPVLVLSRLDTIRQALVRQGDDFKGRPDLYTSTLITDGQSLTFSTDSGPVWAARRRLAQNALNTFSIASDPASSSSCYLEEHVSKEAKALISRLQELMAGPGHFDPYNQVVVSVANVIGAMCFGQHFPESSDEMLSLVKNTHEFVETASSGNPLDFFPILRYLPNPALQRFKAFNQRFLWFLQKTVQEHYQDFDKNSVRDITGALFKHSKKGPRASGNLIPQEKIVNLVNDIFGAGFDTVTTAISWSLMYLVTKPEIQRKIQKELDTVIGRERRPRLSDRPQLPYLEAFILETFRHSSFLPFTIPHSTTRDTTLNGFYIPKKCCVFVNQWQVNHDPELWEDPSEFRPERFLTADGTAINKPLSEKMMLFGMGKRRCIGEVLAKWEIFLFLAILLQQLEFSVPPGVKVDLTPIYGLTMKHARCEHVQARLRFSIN

Protein Tat = biological target: T2, Protein Tat (Human immunodeficiency virus type 1 group M subtype B (isolate HXB2)(HIV-1), UniProt P04608); format: functional;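 note: tat binding to TAR RNA read out by fluorescence polarization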
T2 sequence (P04608 whole entry): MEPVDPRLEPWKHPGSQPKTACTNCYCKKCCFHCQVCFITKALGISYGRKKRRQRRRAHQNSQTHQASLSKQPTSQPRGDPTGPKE

[16] = biological target: E3 ubiquitin-protein ligase Mdm2 (Homo sapiens, UniProt Q00987); test: enhancers of MDM2-luciferase reporter signal, concentration-effect titration, project on inhibitors of MDM2 ubiquitin ligase, cellular assay, luminescent readout, 384-well plate format (AID 1394); format: functional;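 note: MDM2 E3 inhibitors raise luminescence so EC50 is for signal enhancement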
Sequence of E3 ubiquitin-protein ligase Mdm2 (Q00987 whole entry): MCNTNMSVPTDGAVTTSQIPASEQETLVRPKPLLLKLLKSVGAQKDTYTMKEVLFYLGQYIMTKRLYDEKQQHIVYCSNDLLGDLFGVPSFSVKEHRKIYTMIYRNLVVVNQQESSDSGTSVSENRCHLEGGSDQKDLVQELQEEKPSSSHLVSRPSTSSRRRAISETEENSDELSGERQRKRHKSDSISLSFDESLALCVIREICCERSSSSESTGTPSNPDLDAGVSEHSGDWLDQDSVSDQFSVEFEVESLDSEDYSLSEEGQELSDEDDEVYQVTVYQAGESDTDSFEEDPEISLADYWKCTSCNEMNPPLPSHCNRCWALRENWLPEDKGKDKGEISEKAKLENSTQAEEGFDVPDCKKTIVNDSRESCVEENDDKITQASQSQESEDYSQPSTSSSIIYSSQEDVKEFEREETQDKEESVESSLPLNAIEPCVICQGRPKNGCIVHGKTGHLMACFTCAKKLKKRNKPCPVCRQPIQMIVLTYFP

Vasopressin V2 receptor = Vasopressin V2 receptor (Homo sapiens, UniProt P30518); test: Late-stage results from the probe development effort to identify antagonists of arginine vasopressin receptor 1a (AVPR1a): fluorescence-based cell-based dose response AVPR2 inhibition counterscreen assay.; format: functional
Sequence of Vasopressin V2 receptor (P30518 whole entry): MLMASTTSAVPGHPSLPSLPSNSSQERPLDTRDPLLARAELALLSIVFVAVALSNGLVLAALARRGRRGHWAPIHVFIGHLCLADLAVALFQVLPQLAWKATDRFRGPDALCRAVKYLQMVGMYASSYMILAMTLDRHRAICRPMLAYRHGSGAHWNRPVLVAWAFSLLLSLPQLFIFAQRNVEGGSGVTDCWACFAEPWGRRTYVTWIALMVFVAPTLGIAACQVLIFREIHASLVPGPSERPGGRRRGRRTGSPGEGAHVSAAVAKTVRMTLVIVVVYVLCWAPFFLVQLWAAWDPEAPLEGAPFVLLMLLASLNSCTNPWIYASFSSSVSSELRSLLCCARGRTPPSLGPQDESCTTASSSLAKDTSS

[17] = Late-stage results from the probe development effort to identify antagonists of arginine vasopressin receptor 1a (AVPR1a): fluorescence-based cell-based dose response AVPR1a inhibition assay.; format: functional
[18] = Late-stage results from the probe development effort to identify antagonists of arginine vasopressin receptor 1a (AVPR1a): fluorescence-based cell-based dose response OXTR inhibition counterscreen assay.; format: functional
Vasopressin V1b receptor = Vasopressin V1b receptor (Homo sapiens, UniProt P47901); test: Late-stage results from the probe development effort to identify antagonists of arginine vasopressin receptor 1a (AVPR1a): fluorescence-based cell-based dose response AVPR1b inhibition counterscreen assay.; format: functional
Sequence of Vasopressin V1b receptor (P47901 whole entry): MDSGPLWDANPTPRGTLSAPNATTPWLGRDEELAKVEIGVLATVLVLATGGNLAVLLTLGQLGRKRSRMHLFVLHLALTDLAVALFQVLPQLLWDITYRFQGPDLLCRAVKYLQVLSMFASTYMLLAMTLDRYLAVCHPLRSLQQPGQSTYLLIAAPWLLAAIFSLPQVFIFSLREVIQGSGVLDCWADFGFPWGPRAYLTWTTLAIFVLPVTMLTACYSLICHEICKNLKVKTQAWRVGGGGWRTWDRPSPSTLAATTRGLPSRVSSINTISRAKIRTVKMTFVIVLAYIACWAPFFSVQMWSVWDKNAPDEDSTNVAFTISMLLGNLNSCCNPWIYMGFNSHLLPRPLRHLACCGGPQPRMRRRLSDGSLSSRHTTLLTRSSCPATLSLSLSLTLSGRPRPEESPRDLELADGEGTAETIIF

CN1c2ccc(C#Cc3cccnc3)cc2[C@@H]2[C@@H](CCN2C(=O)c2cccc(F)c2)[C@@H]1CO
AC50 [1]: 4.46 µM (active)

COC(=O)c1ccc(CSc2nc3ccccc3c(=O)n2-c2ccc(OC)c(OC)c2)o1
IC50 [2]: > 100 µM (active)
EC50 [3]: > 50 µM (active)

Cc1ccc(S(=O)(=O)N(C)C[C@H]2OCCCC[C@H](C)Oc3ccc(NS(=O)(=O)c4ccc(F)cc4)cc3C(=O)N([C@H](C)CO)C[C@@H]2C)cc1
AC50 [4]: 67.9 µM (active)
AC50 [5]: 29.3 µM (active)
AC50 [6]: > 70 µM (inactive)
AC50 (Paired box protein Pax-8): 3.32 µM (active)

N=C(NN=Cc1ccc(Cl)cc1)NN=Cc1ccc(Cl)cc1
IC50 [7]: 0.394 µM (active)
IC50 [8]: 0.458 µM (active)
IC50 [9]: 0.344 µM (active)
IC50 [10]: 0.654 µM (active)
IC50 [11]: 0.47 µM (active)
IC50 [12]: 0.225 µM (active)
IC50 [13]: 0.681 µM (active)
IC50 [14]: 0.28 µM (active)

O=C1NCN(c2ccccc2)C12CCN(CCCOc1ccc(F)cc1)CC2 [SPIRAMIDE]
IC50 [7]: 8.82 µM (inactive)
IC50 [8]: 11.8 µM (inactive)
IC50 [9]: 5.33 µM (inactive)
IC50 [10]: 0.882 µM (active)
IC50 [15]: > 33.3 µM (inactive)
IC50 [11]: 5.31 µM (inactive)
IC50 [12]: 4.61 µM (active)
AC50 (Cytochrome P450 1A2): 39.8 µM (inconclusive)
IC50 [13]: 2.46 µM (active)
IC50 [14]: 0.242 µM (active)

CCOc1ccc(Nc2nc3ccccc3n3nnnc23)cc1
IC50 (Protein Tat): > 100 µM (active)
IC50 [2]: > 100 µM (active)

Cc1ccc(C)c(NC(=O)C(Sc2nnc(-c3cccs3)o2)c2ccccc2)c1 (configuration not stated)
EC50 [16]: 25 µM (not active)

Cc1ccnc(N2CCC(C(=O)N(CC3CC3)c3ccc(Cl)cc3)CC2)c1
IC50 (Vasopressin V2 receptor): 13.6 µM (inactive)
IC50 [17]: 0.0052 µM (active)
IC50 [18]: 9.1 µM (active)
IC50 (Vasopressin V1b receptor): 18.2 µM (inactive)
